Assay results as given in patent US7977327B2, “Substituted pyrrolidine derivative” (Daiichi Sankyo Company, Limited, priority 2004, dated 2011).
Values after ≈ are worked out from the molar mass of the structure shown. Structures can show the parent of a compound that is named as a salt. Where two headings read alike, the source gives them in different places. Marks after values point to notes of the source that are not given here.

Experiments:
[1] = test system: Chinese hamster lung (CHL/IU) cells; assay: Effect of inducing chromosomal aberration; format: cell-based; settings: for Percentile induction of structural aberration (TA %): 24 hours, CHL/IU cells
Protocol: From each sample solution, samples to be tested having a concentration of 1, 3, 10, 30, 50, and 100 μg/mL (as reduced to free form) were prepared. As a negative control, 0.1 mol/L NaOH was employed.
Chinese hamster lung (CHL/IU) cells in logarithmic growth phase were employed. The cells were treated in a culture solution containing each sample to be tested for 24 hours. Subsequently, a chromosome specimen was prepared from the thus-treated cells. The culture solution employed was an Eagle's MEM (product of NISSUI PHARMACEUTICAL CO., LTD.) medium containing 15% fetal bovine serum (15% FBS-MEM).
In each sample concentration, 100 cells during metaphase were observed, to thereby record types and numbers of the chromosomal aberration.

P. Vulgalis 08601 = assay: Antibacterial activity (MIC), standard method of the Japan Society of Chemotherapy; format: cell-based
Protocol: (§1) The antimicrobial activities of the compounds of the present invention were determined according to a standard method designated by the Japan Society of Chemotherapy. The results are expressed by MIC (μg/mL) (Table 1). In Table 1, S. aureus 870307 and S. pneumonia J24 are quinolone-resistant bacteria.

P. aeruginosa 32121 = assay: as above; format: cell-based
Protocol: as §1

P. aeruginosa 32104 = assay: as above; format: cell-based
Protocol: as §1

E. faevcalis ATCC 19433 = assay: as above; format: cell-based
Protocol: as §1

S. aureus 870307 = assay: as above; format: cell-based
Protocol: as §1

S. pyogenes G-36 = assay: as above; format: cell-based
Protocol: as §1

E. coli NIHJ = assay: as above; format: cell-based
Protocol: as §1

S. flexneri 2A 5503 = assay: as above; format: cell-based
Protocol: as §1

K. pneumoniae TYPE I = assay: as above; format: cell-based
Protocol: as §1

S. maltophilia IID 1275 = assay: as above; format: cell-based
Protocol: as §1

S. pneumoniae J24 = assay: as above; format: cell-based
Protocol: as §1

S. marcescens 10100 = assay: as above; format: cell-based
Protocol: as §1

S. epidermidis 56500 = assay: as above; format: cell-based
Protocol: as §1

S. aureus FDA 209P = assay: as above; format: cell-based
Protocol: as §1

Slc:ddY male mice = assay: Effect of inducing convulsion, intracisternal administration to mice; format: in vivo; settings: i.cist., Probit method
Protocol: The compounds (Compound Nos. 1, 2, and 3) of the present invention and Comparative Compounds A and B were individually dissolved in 5% glucose, to thereby prepare several samples to be tested. Groups of six-week-old Slc:ddY male mice (body weight: 23.9 to 27.4 g), each group consisting of 6 mice, were employed in the test. Each of the above-prepared samples was administered intracisternally to each mouse belonging to each group at concentrations shown in Tables 2 and 3 (5 μL/mouse). During 30 minutes after administration, it was observed whether each mouse suffered convulsion or died in an individual cage. Administration was performed according to the method described by Ueda, et al. (Reference 1).
Reference 1: Ueda H, Amano H, Shiomi H, Takagi H: Comparison of the analgesic effects of various opioid peptides by a newly devised intracisternal injection technique in conscious mice. Eur J Pharmacol. 1979; 56: 265-8.
Significant difference test between groups was performed in terms of incidence of convulsion according to the Fisher's direct probability calculation method (one-sided test, level of significance: P<0.05). On the basis of percentile incidence of convulsion, CD50 (50% concentration for inducing convulsion) and 95% confidence limit were calculated by the Probit method.

[2] = P. Vulgalis 08601, read-out: MIC
[3] = Pseudomonas aeruginosa, P. aeruginosa 32121, read-out: MIC
[4] = Pseudomonas aeruginosa, P. aeruginosa 32104, read-out: MIC
[5] = E. faevcalis ATCC 19433, read-out: MIC
[6] = Staphylococcus aureus, S. aureus 870307, quinolone-resistant, read-out: MIC
[7] = Streptococcus pyogenes, G36, S. pyogenes G-36, read-out: MIC
[8] = Escherichia coli, E. coli NIHJ, read-out: MIC
[9] = Shigella flexneri, 2A5503, read-out: MIC
[10] = Klebsiella pneumoniae, K. pneumoniae TYPE I, read-out: MIC
[11] = Stenotrophomonas maltophilia, IID1275, S. maltophilia IID 1275, read-out: MIC
[12] = Streptococcus pneumoniae, S. pneumoniae J24, quinolone-resistant, read-out: MIC
[13] = Serratia marcescens, S. marcescens 10100, read-out: MIC
[14] = Staphylococcus epidermidis, S. epidermidis 56500, read-out: MIC
[15] = Staphylococcus aureus, FDA209P, S. aureus FDA 209P, read-out: MIC

SMILES	Percentile induction of structural aberration (TA %) ([1]; 1 μg/mL)	Percentile induction of structural aberration (TA %) ([1]; 3 μg/mL)	Percentile induction of structural aberration (TA %) ([1]; 10 μg/mL)	Percentile induction of structural aberration (TA %) ([1]; 30 μg/mL)	Percentile induction of structural aberration (TA %) ([1]; 50 μg/mL)	Percentile induction of structural aberration (TA %) ([1]; 100 μg/mL)	MIC (P. Vulgalis 08601; [2])	MIC (P. aeruginosa 32121; [3])	MIC (P. aeruginosa 32104; [4])	MIC (E. faevcalis ATCC 19433; [5])	MIC (S. aureus 870307; [6])	MIC (S. pyogenes G-36; [7])	MIC (E. coli NIHJ; [8])	MIC (S. flexneri 2A 5503; [9])	MIC (K. pneumoniae TYPE I; [10])	MIC (S. maltophilia IID 1275; [11])	MIC (S. pneumoniae J24; [12])	MIC (S. marcescens 10100; [13])	MIC (S. epidermidis 56500; [14])	MIC (S. aureus FDA 209P; [15])	other results
CC[C@H]1CN(c2c(F)cc3c(=O)c(C(=O)O)cn([C@@H]4C[C@@H]4F)c3c2C)C[C@H]1N [Compound No. 2, 7-[(3S,4S)-3-Amino-4-ethylpyrrolidin-1-yl]-6-fluoro-1-[(1R,2S)-2-fluorocyclopropyl]-8-methyl-1,4-dihydro-4-oxoquinoline-3-carboxylic acid]	1%	1%	1%	2%	3%	8%	0.006 µg/mL (≈ 0.0153 µM)	0.025 µg/mL (≈ 0.0639 µM)	0.05 µg/mL (≈ 0.128 µM)	0.1 µg/mL (≈ 0.255 µM)	0.39 µg/mL (≈ 0.996 µM)	0.025 µg/mL (≈ 0.0639 µM)	≤ 0.003 µg/mL	≤ 0.003 µg/mL	0.025 µg/mL (≈ 0.0639 µM)	0.05 µg/mL (≈ 0.128 µM)	0.025 µg/mL (≈ 0.0639 µM)	0.025 µg/mL (≈ 0.0639 µM)	0.025 µg/mL (≈ 0.0639 µM)	0.006 µg/mL (≈ 0.0153 µM)	Significant increase in number of the cells exhibiting chromosomal aberration ([1]; at a concentration of up to 100 μg/mL): not observed
Cc1c(N2C[C@@H](N)[C@@H](C)C2)c(F)cc2c(=O)c(C(=O)O)cn(C3CC3)c12 [Comparative Compound C, reference compound]	3%	4%	5%	72* %	98* %	TOX*^2	0.05 µg/mL (≈ 0.139 µM)	0.2 µg/mL (≈ 0.556 µM)	0.39 µg/mL (≈ 1.09 µM)	0.2 µg/mL (≈ 0.556 µM)	1.56 µg/mL (≈ 4.34 µM)	0.2 µg/mL (≈ 0.556 µM)	0.012 µg/mL (≈ 0.0334 µM)	0.025 µg/mL (≈ 0.0696 µM)	0.05 µg/mL (≈ 0.139 µM)	0.2 µg/mL (≈ 0.556 µM)	0.1 µg/mL (≈ 0.278 µM)	0.2 µg/mL (≈ 0.556 µM)	0.1 µg/mL (≈ 0.278 µM)	0.025 µg/mL (≈ 0.0696 µM)	Observation of chromosomes (cytotoxicity) ([1]; at a concentration of 100 μg/mL): could not be observed
COc1c(N2C[C@@H](N)[C@@H](C3CC3)C2)c(F)cc2c(=O)c(C(=O)O)cn([C@@H]3C[C@@H]3F)c12 [Compound No. 8, 7-[(3S,4S)-3-Amino-4-cyclopropylpyrrolidin-1-yl]-6-fluoro-1-[(1R,2S)-2-fluorocyclopropyl]-8-methoxy-1,4-dihydro-4-oxoquinoline-3-carboxylic acid]							0.025 µg/mL (≈ 0.0596 µM)	0.1 µg/mL (≈ 0.238 µM)	0.2 µg/mL (≈ 0.477 µM)	0.1 µg/mL (≈ 0.238 µM)	0.39 µg/mL (≈ 0.93 µM)	0.1 µg/mL (≈ 0.238 µM)	0.006 µg/mL (≈ 0.0143 µM)	0.025 µg/mL (≈ 0.0596 µM)	0.05 µg/mL (≈ 0.119 µM)	0.2 µg/mL (≈ 0.477 µM)	0.1 µg/mL (≈ 0.238 µM)	0.1 µg/mL (≈ 0.238 µM)	0.1 µg/mL (≈ 0.238 µM)	0.012 µg/mL (≈ 0.0286 µM)	melting point: 211 to 214 °C
C[C@H]1CN(c2c(F)cc3c(=O)c(C(=O)O)cn4c3c2OC[C@@H]4C)C[C@H]1N [Comparative Compound B, (3S)-10-[(3S,4S)-3-Amino-4-methylpyrrolidin-1-yl]-9-fluoro-2,3-dihydro-3-methyl-7-oxo-7H-pyrido[1,2,3-de][1,4]benzoxazine-6-carboxylic acid-hydrochloride, reference compound]														0.012 µg/mL							CD50 (50% concentration for inducing convulsion), with 95% confidence limit (Slc:ddY male mice): 28.6 (16.8-48.5)^a) μg/5 μL/mouse; MIC (P. Vulgalis 08601): 0.006 µg/mL; MIC (P. aeruginosa 32121; Pseudomonas aeruginosa, 32121): 0.025 µg/mL; MIC (P. aeruginosa 32104; Pseudomonas aeruginosa, 32104): 0.1 µg/mL; MIC (E. faevcalis ATCC 19433): 0.2 µg/mL; MIC (S. aureus 870307; Staphylococcus aureus, 870307): 3.13 µg/mL; MIC (S. pyogenes G-36; Streptococcus pyogenes, G36): 0.1 µg/mL; MIC (E. coli NIHJ; Escherichia coli): 0.012 µg/mL; MIC (K. pneumoniae TYPE I; Klebsiella pneumoniae): 0.05 µg/mL; MIC (S. maltophilia IID 1275; Stenotrophomonas maltophilia, IID1275): 0.39 µg/mL; MIC (S. pneumoniae J24; Streptococcus pneumoniae, J24): 0.1 µg/mL; MIC (S. marcescens 10100; Serratia marcescens, 10100): 0.05 µg/mL; MIC (S. epidermidis 56500; Staphylococcus epidermidis, 56500): 0.1 µg/mL; MIC (S. aureus FDA 209P; Staphylococcus aureus, FDA209P): 0.012 µg/mL
COc1c(N2C[C@@H]3CCCN[C@@H]3C2)c(F)cc2c(=O)c(C(=O)O)cn(C3CC3)c12 [MFLX, reference compound]																					MIC (P. Vulgalis 08601; P. Vulgalis 08601): 0.025 µg/mL (≈ 0.0623 µM); MIC (P. aeruginosa 32121; P. aeruginosa 32121): 0.2 µg/mL (≈ 0.498 µM); MIC (P. aeruginosa 32104; P. aeruginosa 32104): 0.39 µg/mL (≈ 0.972 µM); MIC (E. faevcalis ATCC 19433; E. faevcalis ATCC 19433): 0.2 µg/mL (≈ 0.498 µM); MIC (S. aureus 870307; S. aureus 870307, quinolone-resistant): 0.78 µg/mL (≈ 1.94 µM); MIC (S. pyogenes G-36; S. pyogenes G-36): 0.2 µg/mL (≈ 0.498 µM); MIC (E. coli NIHJ; E. coli NIHJ): 0.006 µg/mL (≈ 0.0149 µM); MIC (S. flexneri 2A 5503): 0.012 µg/mL (≈ 0.0299 µM); MIC (K. pneumoniae TYPE I; K. pneumoniae TYPE I): 0.05 µg/mL (≈ 0.125 µM); MIC (S. maltophilia IID 1275; S. maltophilia IID 1275): 0.1 µg/mL (≈ 0.249 µM); MIC (S. pneumoniae J24; S. pneumoniae J24, quinolone-resistant): 0.025 µg/mL (≈ 0.0623 µM); MIC (S. marcescens 10100; S. marcescens 10100): 0.1 µg/mL (≈ 0.249 µM); MIC (S. epidermidis 56500; S. epidermidis 56500): 0.1 µg/mL (≈ 0.249 µM); MIC (S. aureus FDA 209P; S. aureus FDA 209P): 0.025 µg/mL (≈ 0.0623 µM)
Cc1c(N2C[C@@H](N)[C@@H](C(C)C)C2)c(F)cc2c(=O)c(C(=O)O)cn([C@@H]3C[C@@H]3F)c12 [Compound No. 16, 7-[(3S,4S)-3-Amino-4-isopropylpyrrolidine-1-yl]-6-fluoro-1-[(1R,2S)-2-fluorocyclopropyl]-8-methyl-1,4-dihydro-4-oxoquinoline-3-carboxylic acid]							0.025 µg/mL (≈ 0.0617 µM)	0.1 µg/mL (≈ 0.247 µM)	0.2 µg/mL (≈ 0.493 µM)	0.1 µg/mL (≈ 0.247 µM)	0.1 µg/mL (≈ 0.247 µM)	0.025 µg/mL (≈ 0.0617 µM)	0.006 µg/mL (≈ 0.0148 µM)	0.006 µg/mL (≈ 0.0148 µM)	0.025 µg/mL (≈ 0.0617 µM)	0.05 µg/mL (≈ 0.123 µM)	0.05 µg/mL (≈ 0.123 µM)	0.05 µg/mL (≈ 0.123 µM)	0.025 µg/mL (≈ 0.0617 µM)	0.006 µg/mL (≈ 0.0148 µM)	melting point: 124 to 127 °C
